According to DBAASP:
In brackets after ≈: the same amount, converted by molar mass. Blank lines part the entries; values can stand above or below the compound they belong to.

Assays:
Test in all cases: ≥ marks a high value that may be exact or a test limit, other limits are often not marked, values filed in µg/mL are converted to µM
[1] = test system: Pseudomonas aeruginosa Ps4
[2] = test system: Candida albicans NCPF 1467
[3] = test system: Escherichia coli NCTC 10418
[4] = test system: Staphylococcus aureus NCTC 10788
Acinetobacter baumannii = test system: Acinetobacter baumannii
[5] = test system: Escherichia coli ATCC 25922
Escherichia coli K88 = test system: Escherichia coli K88
Escherichia coli K99 = test system: Escherichia coli K99
Escherichia coli UB1005 = test system: Escherichia coli UB1005
Escherichia coli = test system: Escherichia coli
Klebsiella pneumoniae = test system: Klebsiella pneumoniae
[6] = test system: Pseudomonas aeruginosa ATCC 27853
[7] = test system: Pseudomonas aeruginosa CICC 21625
[8] = test system: Pseudomonas aeruginosa CICC 21630
[9] = test system: Pseudomonas aeruginosa PAO1
Pseudomonas aeruginosa = test system: Pseudomonas aeruginosa
[10] = test system: Salmonella enterica subsp. enterica serovar Pullorum C79-13
[11] = test system: Salmonella enterica subsp. enterica serovar Typhimurium ATCC 14028
[12] = test system: Salmonella enterica subsp. enterica serovar Typhimurium C77-31
Candida albicans = test system: Candida albicans
[13] = test system: Enterococcus faecalis ATCC 29212
[14] = test system: Pseudomonas aeruginosa H103
[15] = test system: Salmonella enterica serovar Typhimurium
[16] = test system: Staphylococcus aureus ATCC 25923
[17] = test system: Staphylococcus epidermidis

Structure (SMILES): CC[C@H](C)[C@H](NC(=O)[C@H](CC(N)=O)NC(=O)[C@H](CCCN=C(N)N)NC(=O)[C@H](CCC(N)=O)NC(=O)[C@H](Cc1c[nH]c2ccccc12)NC(=O)[C@@H](NC(=O)[C@@H](N)Cc1ccccc1)[C@@H](C)CC)C(=O)N[C@@H](CCCN=C(N)N)C(=O)N[C@@H](CCCCN)C(=O)N[C@H](C(=O)N[C@@H](CCCN=C(N)N)C(N)=O)C(C)C [FIWQRNIRKVR]
MIC [1]: ≥ 165 µM

Structure (SMILES): CC[C@H](C)[C@H](NC(=O)[C@H](C)NC(=O)[C@@H]1CCCN1C(=O)[C@H](CC(C)C)NC(=O)[C@@H](N)Cc1ccccc1)C(=O)N[C@@H](C)C(=O)NCC(=O)N[C@H](C(=O)N[C@@H](C)C(=O)N[C@@H](C)C(=O)N[C@@H](CCCCN)C(=O)N[C@@H](Cc1ccccc1)C(=O)N[C@@H](CC(C)C)C(=O)N1CCC[C@H]1C(=O)N[C@@H](CCCCN)C(=O)N[C@H](C(=O)N[C@@H](Cc1ccccc1)C(=O)N[C@H]1CSSC[C@@H](C(=O)O)NC(=O)[C@H](CCCCN)NC(=O)[C@H](CCCCN)NC(=O)[C@H]([C@@H](C)O)NC(=O)[C@H]([C@@H](C)CC)NC(=O)[C@H](C)NC1=O)[C@@H](C)CC)C(C)C [FLPAIAGVAAKFLPKIFCAITKKC]
MIC [2]: 3.14 µM (≈ 8 µg/mL) | MIC [3]: 25.1 µM (≈ 64 µg/mL) | MIC [4]: 6.28 µM (≈ 16 µg/mL)

Structure (SMILES): CC[C@H](C)[C@H](NC(=O)[C@H](CCCN=C(N)N)NC(=O)[C@H](Cc1c[nH]c2ccccc12)NC(=O)CNC(=O)[C@H](CCCN=C(N)N)NC(=O)[C@H](Cc1c[nH]c2ccccc12)NC(=O)[C@@H](N)Cc1ccccc1)C(=O)N[C@@H](CCCN=C(N)N)C(=O)N[C@@H](CCCN=C(N)N)C(N)=O [FWRGWRIRR]
MIC [1]: ≥ 93.8 µM

Structure (SMILES): NCCCC[C@H](NC(=O)[C@H](CCCN=C(N)N)NC(=O)[C@H](Cc1c[nH]c2ccccc12)NC(=O)[C@H](Cc1c[nH]c2ccccc12)NC(=O)[C@H](CCCN=C(N)N)NC(=O)[C@@H](N)CCCCN)C(=O)N[C@@H](Cc1c[nH]c2ccccc12)C(=O)N[C@@H](Cc1c[nH]c2ccccc12)C(=O)N[C@@H](CCCN=C(N)N)C(=O)O [KRWWRKWWR]
MIC (Candida albicans): 5.4 µM (≈ 8.03 µg/mL) | MIC [13]: 10.8 µM (≈ 16.1 µg/mL) | MIC (Escherichia coli UB1005): 2.7 µM (≈ 4.02 µg/mL) | MIC [14]: ≥ 43.2 µM | MIC [15]: 5.4 µM (≈ 8.03 µg/mL) | MIC [16]: 0.7 µM (≈ 1.04 µg/mL) | MIC [17]: 0.7 µM (≈ 1.04 µg/mL)

Structure (SMILES): CC[C@H](C)[C@H](NC(=O)[C@H](CCCCN)NC(=O)[C@H](CCCN=C(N)N)NC(=O)[C@H](Cc1c[nH]c2ccccc12)NC(=O)[C@H](Cc1c[nH]c2ccccc12)NC(=O)[C@H](Cc1c[nH]c2ccccc12)NC(=O)[C@H](CCCCN)NC(=O)[C@H](Cc1c[nH]c2ccccc12)NC(=O)[C@@H](N)CCCCN)C(=O)O [KWKWWWRKI]
MIC (Candida albicans): 4.6 µM (≈ 6.52 µg/mL) | MIC [13]: 4.6 µM (≈ 6.52 µg/mL) | MIC (Escherichia coli UB1005): 4.6 µM (≈ 6.52 µg/mL) | MIC [14]: 4.6 µM (≈ 6.52 µg/mL) | MIC [15]: 4.6 µM (≈ 6.52 µg/mL) | MIC [16]: 1.2 µM (≈ 1.7 µg/mL) | MIC [17]: 1.2 µM (≈ 1.7 µg/mL)

Structure (SMILES): CC[C@H](C)[C@H](NC(=O)[C@H](CCCN=C(N)N)NC(=O)[C@@H](NC(=O)[C@H](Cc1c[nH]c2ccccc12)NC(=O)[C@H](CCCN=C(N)N)NC(=O)[C@H](CCCN=C(N)N)NC(=O)[C@@H](N)CC(C)C)[C@@H](C)CC)C(=O)N[C@@H](CCCN=C(N)N)C(=O)N[C@@H](Cc1c[nH]c2ccccc12)C(=O)O [LRRWIRIRW]
MIC (Candida albicans): 10.7 µM (≈ 14.5 µg/mL) | MIC [13]: 5.4 µM (≈ 7.32 µg/mL) | MIC (Escherichia coli UB1005): 0.7 µM (≈ 0.948 µg/mL) | MIC [14]: 21.4 µM (≈ 29 µg/mL) | MIC [15]: 5.4 µM (≈ 7.32 µg/mL) | MIC [16]: 1.3 µM (≈ 1.76 µg/mL) | MIC [17]: 0.883 µM (≈ 1.2 µg/mL)

Structure (SMILES): CC[C@H](C)[C@H](NC(=O)[C@H](CCCN=C(N)N)NC(=O)[C@H](CC(C)C)NC(=O)[C@H](CCCN=C(N)N)NC(=O)[C@@H](N)C(C)C)C(=O)N[C@@H](CCCN=C(N)N)C(=O)N[C@H](C(=O)N[C@@H](CCCN=C(N)N)C(=O)N[C@H](C(=O)N[C@H](C(=O)N[C@@H](CCCN=C(N)N)C(=O)N[C@@H](CCCCN)C(=O)O)[C@@H](C)CC)C(C)C)C(C)C [VRLRIRVRVIRK]
MIC (Candida albicans): 8 µM (≈ 12.5 µg/mL) | MIC [13]: 4 µM (≈ 6.26 µg/mL) | MIC (Escherichia coli UB1005): 2 µM (≈ 3.13 µg/mL) | MIC [14]: 2 µM (≈ 3.13 µg/mL) | MIC [15]: 2 µM (≈ 3.13 µg/mL) | MIC [16]: 1 µM (≈ 1.56 µg/mL) | MIC [17]: 1 µM (≈ 1.56 µg/mL)

Other lines, results leading:

MIC [2]: 2.5 µM (≈ 4.97 µg/mL) | MIC [3]: 5 µM (≈ 9.93 µg/mL) | MIC [4]: 2.5 µM (≈ 4.97 µg/mL)
Structure (SMILES): CC[C@H](C)[C@H](NC(=O)[C@H](CCCCN)NC(=O)[C@H](CCCCN)NC(=O)[C@@H](NC(=O)[C@H](CC(C)C)NC(=O)[C@H](CCCCN)NC(=O)[C@@H]1CCCN1C(=O)[C@@H](NC(=O)[C@H](CC(C)C)NC(=O)[C@H](CO)NC(=O)[C@H](CC(C)C)NC(=O)[C@@H](N)Cc1ccccc1)[C@@H](C)CC)C(C)C)C(=O)N[C@H](C(=O)N[C@@H](CCCCN)C(=O)N[C@@H](C)C(=O)N[C@@H](Cc1ccccc1)C(=O)N[C@@H](CCCCN)C(=O)O)[C@@H](C)CC [FLSLIPKLVKKIIKAFK]

MIC (Acinetobacter baumannii): 2 µM (≈ 6.36 µg/mL) | MIC [5]: 8 µM (≈ 25.4 µg/mL) | MIC (Escherichia coli K88): 2 µM (≈ 6.36 µg/mL) | MIC (Escherichia coli K99): 2 µM (≈ 6.36 µg/mL) | MIC (Escherichia coli UB1005): 16 µM (≈ 50.9 µg/mL) | MIC (Escherichia coli): 16 µM (≈ 50.9 µg/mL) | MIC (Klebsiella pneumoniae): 16 µM (≈ 50.9 µg/mL) | MIC [6]: > 64 µM | MIC [7]: ≥ 64 µM | MIC [8]: ≥ 64 µM | MIC [9]: > 64 µM | MIC (Pseudomonas aeruginosa): > 64 µM | MIC [10]: ≥ 64 µM | MIC [11]: 64 µM (≈ 203 µg/mL) | MIC [12]: ≥ 64 µM
Structure (SMILES): CC[C@H](C)[C@H](N)C(=O)N[C@@H](CCCCN)C(=O)N1CCC[C@H]1C(=O)N[C@H](C(=O)N[C@H](C(=O)N[C@@H](CCCCN)C(=O)N1CCC[C@H]1C(=O)N[C@H](C(=O)N[C@H](C(=O)N[C@@H](CCCCN)C(=O)N1CCC[C@H]1C(=O)N[C@H](C(=O)N[C@H](C(=O)N[C@@H](CCCCN)C(=O)N1CCC[C@H]1C(=O)N[C@H](C(=O)N[C@H](C(=O)N[C@@H](CCCCN)C(=O)N1CCC[C@H]1C(=O)N[C@H](C(=O)N[C@H](C(=O)N[C@@H](CCCCN)C(=O)N1CCC[C@H]1C(=O)N[C@H](C(=O)N[C@H](C(=O)N[C@@H](CCCCN)C(=O)N1CCC[C@H]1C(=O)N[C@H](C(N)=O)[C@@H](C)CC)[C@@H](C)CC)[C@@H](C)CC)[C@@H](C)CC)[C@@H](C)CC)[C@@H](C)CC)[C@@H](C)CC)[C@@H](C)CC)[C@@H](C)CC)[C@@H](C)CC)[C@@H](C)CC)[C@@H](C)CC)[C@@H](C)CC [IKPIIKPIIKPIIKPIIKPIIKPIIKPI]

MIC (Acinetobacter baumannii): 4 µM (≈ 7.29 µg/mL) | MIC [5]: 16 µM (≈ 29.2 µg/mL) | MIC (Escherichia coli K88): 16 µM (≈ 29.2 µg/mL) | MIC (Escherichia coli K99): 16 µM (≈ 29.2 µg/mL) | MIC (Escherichia coli UB1005): 16 µM (≈ 29.2 µg/mL) | MIC (Escherichia coli): 32 µM (≈ 58.4 µg/mL) | MIC (Klebsiella pneumoniae): > 64 µM | MIC [6]: > 64 µM | MIC [7]: ≥ 64 µM | MIC [8]: ≥ 64 µM | MIC [9]: > 64 µM | MIC (Pseudomonas aeruginosa): > 64 µM | MIC [10]: ≥ 32 µM | MIC [11]: > 64 µM | MIC [12]: ≥ 64 µM
Structure (SMILES): CC(C)C[C@H](NC(=O)[C@@H]1CCCN1C(=O)[C@H](CCCCN)NC(=O)[C@H](CC(C)C)NC(=O)[C@H](CC(C)C)NC(=O)[C@@H]1CCCN1C(=O)[C@H](CCCCN)NC(=O)[C@H](CC(C)C)NC(=O)[C@H](CC(C)C)NC(=O)[C@@H]1CCCN1C(=O)[C@H](CCCCN)NC(=O)[C@H](CC(C)C)NC(=O)[C@H](CC(C)C)NC(=O)[C@@H]1CCCN1C(=O)[C@H](CCCCN)NC(=O)[C@@H](N)CC(C)C)C(N)=O [LKPLLKPLLKPLLKPL]

MIC (Acinetobacter baumannii): 2 µM (≈ 3.87 µg/mL) | MIC [5]: 8 µM (≈ 15.5 µg/mL) | MIC (Escherichia coli K88): 8 µM (≈ 15.5 µg/mL) | MIC (Escherichia coli K99): ≥ 32 µM | MIC (Escherichia coli UB1005): ≥ 32 µM | MIC (Escherichia coli): 16 µM (≈ 31 µg/mL) | MIC (Klebsiella pneumoniae): > 64 µM | MIC [6]: > 64 µM | MIC [7]: ≥ 64 µM | MIC [8]: ≥ 64 µM | MIC [9]: > 64 µM | MIC (Pseudomonas aeruginosa): > 64 µM | MIC [10]: 8 µM (≈ 15.5 µg/mL) | MIC [11]: 32 µM (≈ 61.9 µg/mL) | MIC [12]: ≥ 64 µM
Structure (SMILES): CC(C)C[C@H](NC(=O)[C@@H]1CCCN1C(=O)[C@H](CCCN=C(N)N)NC(=O)[C@H](CC(C)C)NC(=O)[C@H](CC(C)C)NC(=O)[C@@H]1CCCN1C(=O)[C@H](CCCN=C(N)N)NC(=O)[C@H](CC(C)C)NC(=O)[C@H](CC(C)C)NC(=O)[C@@H]1CCCN1C(=O)[C@H](CCCN=C(N)N)NC(=O)[C@H](CC(C)C)NC(=O)[C@H](CC(C)C)NC(=O)[C@@H]1CCCN1C(=O)[C@H](CCCN=C(N)N)NC(=O)[C@@H](N)CC(C)C)C(N)=O [LRPLLRPLLRPLLRPL]
